Patent US11970505B1, “Pyridino-2,16-dioxapentacyclo[7.7.5.01,21.03,8.010,15]henicosa3(8),10,12,14-tetraene-7,20-dione as an antimicrobial compound” (KING FAISAL UNIVERSITY, priority 2023, dated 2024)

Columns and labels:
Format in all cases: cell-based
Conditions in all cases: after 10, 20, 40 and 60 minutes at all dilutions 1:100, 1:200, 1:400, and 1:800
Candida albicans = test: Antimicrobial activity by agar dilution, Candida albicans
Description: (§1) The antibacterial properties of the synthesized compound (pyridino-2,16-dioxapentacyclo[7.7.5.0^1,21.0^3,8.0^10,15]henicosa3(8),10,12,14-tetraene-7,20-dione) were studied by the method of agar dilution. Test solutions of each compound was prepared in concentration of 1% using dimethylformamide as a solvent. Then they were diluted in physiological solution to obtain the final experimental dilutions of 1:100, 1:200, 1:400, and 1:800. The effect of these substances were compared with furacillin in a controllable study. The testing microbes used were gram positive bacteria Staphylococcus aureus, gram negative bacteria Pseudomonas aeruginosa, Escherichia coli, and Candida albicans fungus. The experiments used for this survey were meat-pentonlu agar (EPA) for cultivation of bacteria and Saburo environment for fungi. Each experiment used 1 mL of test solution on each plate for 500 minutes. Two drops of emulsified with microbes feel were added. All experimental samples were taken from the agar after 10, 20, 40, 60 minutes in the environment on the basis of Patrk planted. Bacteria were cultivated at a temperature of 37° C. for 1 day and the mushroom was kept in a thermostat for […] at a temperature of 28° C. Then results were checked. Those of control and the antimicrobial activity for the synthesized compounds are listed in Table 1 below, with furacillin serving as a reference.

Escherichia coli = test: Antimicrobial activity by agar dilution, E. Coli
Description: as §1

Pseudomonas aeruginosa = test: Antimicrobial activity by agar dilution, Ps. aeruginosa
Description: as §1

Staphylococcus aureus = test: Antimicrobial activity by agar dilution, St. Aereus
Description: as §1

O=C1CCCC2=C1C1c3cccnc3OC3(CCCC(=O)C13)O2 (stereo not shown) [pyridino-2,16-dioxapentacyclo[7.7.5.0^1,21.0^3,8.0^10,15]henicosa3(8),10,12,14-tetraene-7,20-dione]
higher inhibition activity: inhibition activity compared with Furacilin, Candida albicans (Candida albicans) | inhibition activity compared with Furacilin, Escherichia coli (Escherichia coli) | inhibition activity compared with Furacilin, Pseudomonas aeruginosa (Pseudomonas aeruginosa) | inhibition activity compared with Furacilin, Staphylococcus aureus (Staphylococcus aureus)
